“And” between values parts separate entries of the source, which are not always exact repeats. Equal values may be shown once.
Test system: TRZAX Triticum aestivum (Soft wheat)
Experiment: Ipfencarbazone biostimulant effect, early post emergence foliar application, greenhouse pots, plant height: wheat
Format: in vivo
Settings: for HEIGHT, percent of untreated check (APoC) / HEIGHT, treatment mean: TRZAX BRS327
Text: The original objective of this Example was to evaluate the herbicidal effect of ipfencarbazone when applied as a post emergent treatment to a range of selected crops and weeds. Unexpectedly, crop plant growth stimulation was observed. The actual species of weeds and crops are listed in the summary data tabulated below and in FIGS. 1-13. By convention each plant species has a Bayer code (5-letter name) with the scientific name for the plant referenced in FIGS. 1-13. In each Figure, each tray contains the same configuration of weeds and/or crops. In each Figure there is one replication of each treatment (six treatments in total). The top three photographs in each Figure show the Bayer Codes and bottom three photographs are aligned with the top three facilitating viewing of the same plant species. Throughout the Examples various abbreviations as conventional shorthand notation and will be appreciated by those skilled in the art. Some exemplary abbreviations include, “CV”=Co-efficient of Variation,” “LSD”=Least Significant Difference” (G/L (gram per L) AND GA/L (gram of active ingredient per L); “SC”=suspension concentrate formulation. The diluent in all treatments was water. By convention factors that are identical in all treatments (e.g. diluent and surfactant) are not listed in each treatment.
Methods: The indicated size pots (see Tables below) are filled with a specific soil, the soil properties being indicated below. The referenced crops and weeds are planted by hand in each pot. […] The experiments include six treatments each replicated three times on each crop/weed species. At a specific time after emergence each crop and weed species was treated with ipfencarbazone plus a non-ionic surfactant (NIS). In the present Example, the surfactant employed was ENERGIC™ (non-ionic surfactant). The application timing is indicated in each of the Tables (1 or 2 leaf stage) below. Ipfencarbazone plus surfactant was diluted in water and applied at a rate equivalent to about 250 L/ha. Ipfencarbazone was applied using a track sprayer. After treatment, the pots were randomized in a greenhouse. At each assessment (indicated by “days after treatment” or DAT) the height of each plant was measured. The letters next to each mean indicate the level of statistical significance.
Replications: 3, Untreated treatments: 1, Design: Randomized Complete Block (RCB), Treatment units: Treated ‘Plot’ experimental unit size, Dry Form. Unit: %, Treated ‘Plot’ experimental unit size Width: 1 meter, Treated ‘Plot’ experimental unit size Length: 1.4 meters, Application volume: 250 L/ha, Mix size: 0.15 liters, […]

[1] = Soft wheat BRS327, 15 DA-A, 62.5 g ai/ha + Energic NIS 0.2 % v/v
[2] = Soft wheat BRS327, 15 DA-A, 250 g ai/ha + Energic NIS 0.2 % v/v
[3] = Soft wheat BRS327, 15 DA-A, 1000 g ai/ha + Energic NIS 0.2 % v/v
[4] = Soft wheat BRS327, 28 DA-A, 62.5 g ai/ha + Energic NIS 0.2 % v/v
[5] = Soft wheat BRS327, 28 DA-A, 125 g ai/ha + Energic NIS 0.2 % v/v
[6] = Soft wheat BRS327, 28 DA-A, 250 g ai/ha + Energic NIS 0.2 % v/v
[7] = Soft wheat Iguaçú, 15 DA-A, 62.5 g ai/ha + Energic NIS 0.2 % v/v
[8] = Soft wheat Iguaçú, 15 DA-A, 250 g ai/ha + Energic NIS 0.2 % v/v
[9] = Soft wheat Iguaçú, 15 DA-A, 500 g ai/ha + Energic NIS 0.2 % v/v
[10] = Soft wheat Iguaçú, 15 DA-A, 1000 g ai/ha + Energic NIS 0.2 % v/v
[11] = Soft wheat Iguaçú, 28 DA-A, 62.5 g ai/ha + Energic NIS 0.2 % v/v
[12] = Soft wheat Iguaçú, 28 DA-A, 125 g ai/ha + Energic NIS 0.2 % v/v
[13] = Soft wheat Iguaçú, 28 DA-A, 250 g ai/ha + Energic NIS 0.2 % v/v
[14] = Soft wheat Iguaçú, 28 DA-A, 500 g ai/ha + Energic NIS 0.2 % v/v
[15] = Soft wheat Itaipú, 15 DA-A, 125 g ai/ha + Energic NIS 0.2 % v/v
[16] = Soft wheat Itaipú, 15 DA-A, 250 g ai/ha + Energic NIS 0.2 % v/v
[17] = Soft wheat Itaipú, 15 DA-A, 1000 g ai/ha + Energic NIS 0.2 % v/v
[18] = Soft wheat Itaipú, 28 DA-A, 125 g ai/ha + Energic NIS 0.2 % v/v
[19] = Soft wheat Itaipú, 28 DA-A, 250 g ai/ha + Energic NIS 0.2 % v/v

CC(C)N(C(=O)n1cnn(-c2ccc(Cl)cc2Cl)c1=O)c1ccc(F)cc1F [ARY-0572-001, ipfencarbazone]
Plant HEIGHT, Mean [1]: 27.2 cm
Plant HEIGHT, single plots [1]: 25.0 cm and 30.8 cm and 25.7 cm
Plant HEIGHT, Mean (Soft wheat BRS327, 15 DA-A, 125 g ai/ha + Energic NIS 0.2 % v/v): 27.6 cm
Plant HEIGHT, Mean [2]: 32.0 cm
Plant HEIGHT, single plots [2]: 31.0 cm and 32.3 cm and 32.7 cm
Plant HEIGHT, Mean (Soft wheat BRS327, 15 DA-A, 500 g ai/ha + Energic NIS 0.2 % v/v): 24.4 cm
Plant HEIGHT, Mean [3]: 17.3 cm
Plant HEIGHT, single plots [3]: 23.3 cm and 11.7 cm and 17.0 cm
Plant HEIGHT, Mean [4]: 33.0 cm
Plant HEIGHT, single plots [4]: 27.7 cm and 43.3 cm and 28.0 cm
Plant HEIGHT, Mean [5]: 35.0 cm
Plant HEIGHT, single plots [5]: 49.0 cm and 24.7 cm and 31.3 cm
Plant HEIGHT, Mean [6]: 45.6 cm
Plant HEIGHT, single plots [6]: 45.7 cm and 46.0 cm and 45.0 cm
Plant HEIGHT, Mean (Soft wheat BRS327, 28 DA-A, 500 g ai/ha + Energic NIS 0.2 % v/v): 31.6 cm
Plant HEIGHT, Mean (Soft wheat BRS327, 28 DA-A, 1000 g ai/ha + Energic NIS 0.2 % v/v): 28.2 cm
Plant HEIGHT, Mean [7]: 24.6 cm
Plant HEIGHT, single plots [7]: 20.2 cm and 28.0 cm and 25.7 cm
Plant HEIGHT, Mean (Soft wheat Iguaçú, 15 DA-A, 125 g ai/ha + Energic NIS 0.2 % v/v): 26.1 cm
Plant HEIGHT, Mean [8]: 29.9 cm
Plant HEIGHT, single plots [8]: 28.3 cm and 30.7 cm and 30.8 cm
Plant HEIGHT, Mean [9]: 23.8 cm
Plant HEIGHT, single plots [9]: 30.3 cm and 18.7 cm and 22.3 cm
Plant HEIGHT, Mean [10]: 16.3 cm
Plant HEIGHT, single plots [10]: 22.3 cm and 14.0 cm and 12.7 cm
Plant HEIGHT, Mean [11]: 29.2 cm
Plant HEIGHT, single plots [11]: 24.0 cm and 36.3 cm and 27.3 cm
Plant HEIGHT, Mean [12]: 30.1 cm
Plant HEIGHT, single plots [12]: 39.7 cm and 20.7 cm and 30.0 cm
Plant HEIGHT, Mean [13]: 43.3 cm
Plant HEIGHT, single plots [13]: 39.7 cm and 50.3 cm and 40.0 cm
Plant HEIGHT, Mean [14]: 36.8 cm
Plant HEIGHT, single plots [14]: 47.0 cm and 27.7 cm and 35.7 cm
Plant HEIGHT, Mean (Soft wheat Iguaçú, 28 DA-A, 1000 g ai/ha + Energic NIS 0.2 % v/v): 18.7 cm
Plant HEIGHT, Mean (Soft wheat Itaipú, 15 DA-A, 62.5 g ai/ha + Energic NIS 0.2 % v/v): 23.8 cm
Plant HEIGHT, Mean [15]: 25.5 cm
Plant HEIGHT, single plots [15]: 33.3 cm and 19.8 cm and 23.3 cm
Plant HEIGHT, Mean [16]: 31.4 cm
Plant HEIGHT, single plots [16]: 30.7 cm and 31.3 cm and 32.3 cm
Plant HEIGHT, Mean (Soft wheat Itaipú, 15 DA-A, 500 g ai/ha + Energic NIS 0.2 % v/v): 22.2 cm
Plant HEIGHT, Mean [17]: 15.7 cm
Plant HEIGHT, single plots [17]: 22.0 cm and 13.0 cm and 12.0 cm
Plant HEIGHT, Mean (Soft wheat Itaipú, 28 DA-A, 62.5 g ai/ha + Energic NIS 0.2 % v/v): 37.1 cm
Plant HEIGHT, Mean [18]: 32.3 cm
Plant HEIGHT, single plots [18]: 45.0 cm and 23.3 cm and 28.7 cm
Plant HEIGHT, Mean [19]: 47.8 cm
Plant HEIGHT, single plots [19]: 45.0 cm and 46.7 cm and 51.7 cm
Plant HEIGHT, Mean (Soft wheat Itaipú, 28 DA-A, 500 g ai/ha + Energic NIS 0.2 % v/v): 24.0 cm
Plant HEIGHT, Mean (Soft wheat Itaipú, 28 DA-A, 1000 g ai/ha + Energic NIS 0.2 % v/v): 18.4 cm
HEIGHT, percent of untreated check (APoC) (62.5 g ai/ha, 15 DA-A): (145.5%)
HEIGHT, treatment mean (62.5 g ai/ha, 15 DA-A): 27.2a cm
HEIGHT, percent of untreated check (APoC) (62.5 g ai/ha, 28 DA-A): (147.8%)
HEIGHT, treatment mean (62.5 g ai/ha, 28 DA-A): 33.0 a cm
HEIGHT, percent of untreated check (APoC) (125 g ai/ha, 15 DA-A): (147.6%)

Reference: patent publication US20170318812A1, “Plant and Crop Growth Regulating/Biostimulant Formulations and Methods of Use” (Arysta Lifescience North America, LLC, priority 2014, published 2017)
